From doi:10.1101/2024.03.08.584059, “AllTheBacteria: a community resource empowers biology and discovers novel peptide antibiotics” (bioRxiv, 2026)
“Also recorded” adds a separate entry of the source. Ends that are not written are not given here. Peptide text beside a SMILES is read from it.

How the values were obtained:
A. baumannii ATCC 19606 [1] = assay: NPN uptake outer membrane permeabilization assay; format: cell-based, Acinetobacter baumannii
Procedure: (§1) We next tested whether ATB peptides act primarily by disrupting the bacterial membrane, we assessed their ability to depolarize the cytoplasmic membrane and permeabilize the outer membrane of A. baumannii ATCC 19606 at their MICs using DiSC3-5 and NPN uptake assays, respectively. […] Fluorescence data were analysed in terms of both maximal signal over time and time-resolved kinetic profiles.
N-phenyl-1-napthylamine (NPN) uptake assay was used to evaluate the ability of the peptides to permeabilize the bacterial outer membrane. Inocula of A. baumannii ATCC 19606 were grown to an OD at 600 nm of 0.4 mL^−1, centrifuged (9,391 ģ at 4 °C for 10 min), washed and resuspended in 5 mmol L^−1 HEPES buffer (pH 7.4) containing 5 mmol L^−1 glucose. The bacterial solution was added to a white 96-well plate ([…] per well) together with […] of NPN at 0.5 mmol L^−1. Consequently, peptides diluted in water were added to each well, and the fluorescence was measured at lex = 350 nm and lem = 420 nm over time for 45 min. The relative fluorescence was calculated using the untreated control (buffer + bacteria + fluorescent dye) and polymyxin B (positive control) as baselines and the following equation was applied to reflect % of difference between the baselines and the sample: Percentagedifference=100*flurescencesample-flurescenceuntreatedcontrol/flurescenceuntreatedcontrol

[2] = tested on: human embryonic kidney (HEK293T) cells; conditions: 24 h
Procedure: The cells were cultured in high-glucose Dulbecco’s modified Eagle’s medium supplemented with 1% penicillin and streptomycin (antibiotics) and 10% fetal bovine serum and grown at 37 °C in a humidified atmosphere containing 5% CO2.
One day prior to the experiment, 100 μL aliquots of human embryonic kidney (HEK293T) cells, at a concentration of 50,000 cells per mL, were seeded into each well of 96-well plates (5,000 cells per well). Following cell attachment, the HEK293T cells were treated with increasing concentrations of peptides (ranging from 8 to 128 μmol L^−1) and incubated for 24 h. After the exposure period, cytotoxicity was assessed using the 3-(4,5-dimethylthiazol-2-yl)-2,5-diphenyltetrazolium bromide (MTT) assay. Specifically, the MTT reagent was prepared at a concentration of 0.5 mg mL^−1 in phenol red-free medium and used to replace the peptide-containing supernatants (100 μL per well). The plates were then incubated for 4 h at 37 °C in a humidified atmosphere with 5% CO2, facilitating the formation of insoluble formazan crystals. These crystals were subsequently dissolved in 0.04 mol L^−1 hydrochloric acid prepared in anhydrous isopropanol. Absorbance was measured at 570 nm using a spectrophotometer to quantify cell viability. All experiments were conducted in triplicate (three biological replicates).
To evaluate the safety profile of the ATB peptides, we measured their cytotoxicity against human embryonic kidney (HEK293T) cells using a 3-(4,5-dimethylthiazol-2-yl)-2,5-diphenyltetrazolium bromide (MTT) viability assay and determined half-maximal cytotoxic concentrations (CC50). […]
index as the ratio CC50 (HEK293T) / MIC against A. baumannii ATCC 19606.

A. baumannii ATCC 19606 [3] = assay: DiSC3-5 cytoplasmic membrane depolarization assay; format: cell-based, Acinetobacter baumannii; conditions: peptides at their MICs; HEPES buffer pH 7.2, 20 mmol L^−1 glucose, 0.1 mol L^−1 KCl; 60 min; responses remained below Triton X-100; in words
Procedure: as §1
The cytoplasmic membrane depolarization assay was performed using the membrane potential-sensitive dye 3,3’-dipropylthiadicarbocyanine iodide (DiSC3-5). A. baumannii ATCC 19606 in the mid-logarithmic phase were washed and resuspended at 0.05 OD mL^−1 (optical value at 600 nm) in HEPES buffer (pH 7.2) containing 20 mmol L^−1 glucose and 0.1 mol L^−1 KCl. […] Membrane depolarization was then followed by reading changes in the fluorescence (lex = 622 nm, lem = 670 nm) over time for 60 min. The relative fluorescence was calculated using the untreated control (buffer + bacteria + fluorescent dye) and polymyxin B (positive control) as baselines and the following equation was applied to reflect % of difference between the baselines and the sample: Percentagedifference=100*flurescencesample-flurescenceuntreatedcontrol/flurescenceuntreatedcontrol

A. baumannii ATCC 19606 [4] = assay: microbe, parasite or virus in culture; conditions: Fig. 4 heat map; broth microdilution, LB, 10[5] bacterial cells, 0–64 μmol L^−1, 37 °C, one day, OD600; mode of replicates (triplicate)
Procedure: Figure 4. […] Briefly, 10[5] bacterial cells were incubated with serially diluted peptides (0–64 μmol L^−1) at 37 °C. Bacterial growth was assessed by measuring the optical density at 600 nm in a microplate reader one day post-treatment.

[5] = peptides at their MICs, 5 mmol L^−1 HEPES pH 7.4, 5 mmol L^−1 glucose, 45 min, rank order in words relative to bacterial baseline

## MLKLLKKLQMHLLKKLQKEKLLLNLQKKTLKRKRFRHA-OH [ATB61]
A. baumannii ATCC 19606 [1]; [5]
  outer membrane permeabilization (NPN fluorescence response): largest NPN responses
[2]
  half-maximal cytotoxic concentration (CC50): 20 to 100 µM

## MKLKKLIKFFAFAKGISLLSRRPVRKRTGGLLKKYLAWKYLRRR-OH [ATB6]
[2]
  half-maximal cytotoxic concentration (CC50): 20 to 100 µM

## MTKHAIAAKSLLKKWIISRPLNMKKKSSPFQKIRKMFKRFFK-OH [ATB25]
[2]
  half-maximal cytotoxic concentration (CC50): 5 to 6 µM

## MNKIILRVKKMLKNIKLKNNGIRKYNVKMEVKLVYFK-OH [ATB63]
A. baumannii ATCC 19606 [1]; [5]
  outer membrane permeabilization (NPN fluorescence response): largest NPN responses
A. baumannii ATCC 19606 [3]
  cytoplasmic membrane depolarization signal (DiSC3-5 fluorescence): larger depolarization signals

## MLKLLSIKLKSKKKILRMTLTKLNKWLKTKKKWLRNLKTM-OH [ATB5]
A. baumannii ATCC 19606 [1]; [5]
  outer membrane permeabilization (NPN fluorescence response): only minor NPN increases
A. baumannii ATCC 19606 [4]
  Minimal Inhibitory Concentration, A. baumannii ATCC 19606 (-): 1 µmol/L
[2]
  half-maximal cytotoxic concentration (CC50): 9 to 12 µM

## MTKLKMYLKKVRKNANNSTKQWKYGLPVRNAKLWNNFQPKK-OH [ATB51]
[2]
  half-maximal cytotoxic concentration (CC50): 20 to 100 µM

## MLKGLKKFKWLKKLKRRLMELNELKKFKKLMELRS-OH [ATB13]
[2]
  half-maximal cytotoxic concentration (CC50): 9 to 12 µM

## MFKTNLSRVSVKRLLIWVVWWLRLKKLKKKAKKFRKK-OH [ATB60]
A. baumannii ATCC 19606 [1]; [5]
  outer membrane permeabilization (NPN fluorescence response): strong outer-membrane permeabilization; also recorded: largest NPN responses
A. baumannii ATCC 19606 [3]
  cytoplasmic membrane depolarization signal (DiSC3-5 fluorescence): larger depolarization signals
[2]
  half-maximal cytotoxic concentration (CC50): 9 to 12 µM

## MKILKKNMHNKILPMVSHKKWMMLIKRLKTLGRIKK-OH [ATB56]
[2]
  half-maximal cytotoxic concentration (CC50): 20 to 100 µM

## MSLRKKLFVKTMLRVKIKKQSKQRLQKTKRLLQKLKRPWM-OH [ATB3]
[2]
  half-maximal cytotoxic concentration (CC50): 20 to 100 µM

## MKKLIRNIIYSKLKFLWRWHRPLIIQRRNL-OH [ATB65]
A. baumannii ATCC 19606 [1]; [5]
  outer membrane permeabilization (NPN fluorescence response): strong outer-membrane permeabilization; also recorded: largest NPN responses
A. baumannii ATCC 19606 [3]
  cytoplasmic membrane depolarization signal (DiSC3-5 fluorescence): larger depolarization signals
[2]
  half-maximal cytotoxic concentration (CC50): 5 to 6 µM

## MRSLKRQLLKHKAVKLSIKKWQFLRKLKLVPKRH-OH [ATB18]
[2]
  half-maximal cytotoxic concentration (CC50): 9 to 12 µM

## MRIKLHLRLAFLRFRKKKSLSRLKPISKIRSK-OH [ATB76]
A. baumannii ATCC 19606 [1]; [5]
  outer membrane permeabilization (NPN fluorescence response): strong outer-membrane permeabilization; also recorded: largest NPN responses
[2]
  half-maximal cytotoxic concentration (CC50): 9 to 12 µM

## MIMATKLIKKNKFAKELFSRKYKPRVIKPKKGKGSFKRKKR-OH [ATB99]
A. baumannii ATCC 19606 [1]; [5]
  outer membrane permeabilization (NPN fluorescence response): largest NPN responses

## MKKLKIKKLKIKKLKIKKLKIKKLKSGLRSQ-OH [ATB2]
A. baumannii ATCC 19606 [1]; [5]
  outer membrane permeabilization (NPN fluorescence response): only minor NPN increases

## MIKVSKLVVAKKLNLRKKLKKYLKKPKLGKILLL-OH [ATB12]
[2]
  half-maximal cytotoxic concentration (CC50): 20 to 100 µM

## MSLKKIAKLLANKKVRKIAWMLISHPKFIKMLKNSIKRR-OH [ATB55]
[2]
  half-maximal cytotoxic concentration (CC50): 5 to 6 µM

## MLGRKGLRSVWNGRLNVRKRRQNVRLRKNVRRKNVPKPSVWLI-OH [ATB39]
A. baumannii ATCC 19606 [3]
  cytoplasmic membrane depolarization signal (DiSC3-5 fluorescence): larger depolarization signals
[2]
  half-maximal cytotoxic concentration (CC50): 20 to 100 µM

## CC[C@H](C)CCCCC(=O)N[C@@H](CCN)C(=O)N[C@H](C(=O)N[C@@H](CCN)C(=O)N[C@H]1CCNC(=O)[C@H]([C@@H](C)O)NC(=O)[C@H](CCN)NC(=O)[C@H](CCN)NC(=O)[C@H](CC(C)C)NC(=O)[C@@H](Cc2ccccc2)NC(=O)[C@H](CCN)NC1=O)[C@@H](C)O [Polymyxin B, reference compound] (HELM PEPTIDE1{[CC[C@H](C)CCCCC(=O)[*:2]].[Dab].T.[Dab].[Dab].[Dab].[dF].L.[Dab].[Dab].T}$PEPTIDE1,PEPTIDE1,5:R3-11:R2$$$V2.0; N-terminus assumed; bridges inferred)
A. baumannii ATCC 19606 [1]; pH 7.4
  outer membrane permeabilization (NPN fluorescence response): remained at or near baseline
